Source: publication PMC5691054, “An unexpected protein interaction promotes drug resistance in leukemia” (Nature Communications, 2017)
Entries after “also recorded” stand apart in the source; their conditions may differ. Where no end group is shown, it is not given here.

Legend:
HEK293 cells [1] = assay: 6MP cytotoxicity / drug resistance in transfected HEK293 cells; type: cell-based, Human; details: for IC50: Homo sapiens, HEK293, 96 h, HEK293 expressing ABCC4, CellTiter Glo
Method: (§1) HEK293 cells transfected with ABCC4 or ABCC4ΔC in the presence or absence of MPP1, MO7e, and Meg01 cells were treated with 10 concentrations of 6MP, ranging from 1 to 1000 µM, for 96 h. Cell viability analysis was determined using CellTiter Glo (Promega). Where applicable, cell penetrating peptides conjugated to the PDZ-binding motif of ABCC4 (labeled either ABCC4-PDZ or ABCC4ΔC) were added to the cells at 20 μM. Media was changed daily and new ABCC4-PDZ/ABCC4ΔC peptide and 6MP was added. IC50 values were calculated using GraphPad Prism.

MO7e cells [2] = assay: 6MP cytotoxicity in MO7e cells and CRISPR knock-outs; type: cell-based, Human; details: for IC50: Homo sapiens, Mo7e, 96 h, CellTiter Glo, triplicate; for decrease of 6MP resistance vs. parental cells: MO7e
Method: as §1
CRISPR-Cas9 plasmids containing gRNAs against ABCC4 ([…]) and MPP1 ([…]) were purchased from Sigma Aldrich. MO7e cells were transiently transfected with constructs containing the gRNA, Cas9 Nickase, and a flurophore. Forty-eight hours after transfection, cells were sorted for fluorescent positive cells and single cells were sorted into individual wells of a 96-well plate. Single-sorted cells were allowed to expand and deletion of the gene of interest was verified by immunoblotting.
The Meg01, MO7e, and ABCC4 KO MO7e cell lines were plated at 1500 cells per well in a 96-well plate. Cells were treated with 10 concentrations of Antimycin A (Santa Cruz) ranging from 0.01 to 1000 μM. Cell viability was determined using CellTiter Glo (Promega). Meg01, MO7e, and ABCC4 KO MO7e cells in the presence or absence of 10 nM Antimycin A were treated with 10 concentrations of 6MP, ranging from 1 to 1000 µM, for 96 h. Cell viability analysis was determined using CellTiter Glo. IC50 values were calculated using GraphPad Prism.

MO7e cells [3] = assay: as above; type: cell-based, Human; details: cell permeable peptide (10 μM), in words
[4] = system: murine hematopoietic progenitor cells (HPC); assay: Hematopoietic progenitor cell serial replating in methylcellulose; details: HPC transduced with MPP1; cell penetrating peptide, fresh at each replating; n = 3
Method: In these experiments, littermates were used as controls. Bone marrow from 8- to 12-week-old female virgin C57/BL6 mice were harvested. Progenitors were enriched by incubating with lineage-PE antibodies (CD4, CD8, Mac1, Gr1, NK1.1, B220, and Ter119) and separated using AutoMACS Pro (Miltenyi). Hematopoetic progenitor cells were cultured in the presence of recombinant murine SCF (rmSCF), IL3 (rmIL3), and IL6 (rmIL6) (Peprotech; all 50 ng/ml) for 48 h before transduction on RetroNectin (Takara) coated plates. Retroviral supernatant containing media was produced by transient transfection of HEK293T cells with MSCV based retroviral plasmids encoding either MYCN-ires-YFP or MPP1-ires-CFP as previously described[35]. Forty-eight hours post transduction, cells were harvested, sorted for either YFP or CFP expression, and plated on methylcellulose containing IL3, IL6, SCF, and EPO (Stem Cell Technologies). Colonies were counted after 7 days growth at 37 °C, harvested, and replated.

[5] = system: ABCC4 plasma membrane localization in HEK293 cells expressing MPP1 and GFP-ABCC4; assay: ABCC4 plasma membrane localization (confocal microscopy); type: cell-based, Human
Method: Peptides containing or lacking the ABCC4-PDZ motif were fused with the cell penetrating HIV-TAT peptide. These peptides were tested for their effect on ABCC4 plasma membrane localization. HEK293 cells were transfected with MPP1 and GFP-ABCC4 and the ER protein, calreticulin. The plasma membrane was counter-stained with wheat-germ-agglutinin (WGA) labeled with Alexa647 after treatment with either ABCC4-PDZ or ABCC4ΔC peptide.
HEK293 cells were seeded on chambered coverglass slides (LAB-TEK) 48 h before transfection with plasmid DNA (250 ng) encoding pAc-GFP-ABCC4 or ABCC4ΔC and pCal plasmid encoding the ER resident protein calreticulin conjugated to RFP (Origene). Transfection was performed using Lipofectamine 2000 as per the manufacturer’s instructions. Immediately prior to visualizing cells, cells were counterstained with the plasma membrane marker wheat-germ agglutinin (WGA) conjugated to Alexa-647 (Invitrogen). All confocal microscopy images were acquired on a 3i Marianas system configured with an Yokagowa CSU-X spinning disk confocal microscope utilizing a ×63 Zeiss objective, using the 488 (GFP), 561 (RFP), and 660 (far red) laser lines.

[6] = molecular target: T1, MPP1 and ABCC4 protein interaction (Homo sapiens, UniProt Q00013); assay: Competition of ABCC4 C-terminal peptides with MPP1–ABCC4 complex (GST-ABCC4-C100 pull-down, immunoblot); type: biochemical; details: in words; in vitro competition experiment
T1 construct: For full-length expression of MPP1, the pTriX vector containing an N-terminal His tag was used to create the His-S-MPP1 fusion protein; made in house; host or cells: E. coli
T1 sequence (Q00013 1-466): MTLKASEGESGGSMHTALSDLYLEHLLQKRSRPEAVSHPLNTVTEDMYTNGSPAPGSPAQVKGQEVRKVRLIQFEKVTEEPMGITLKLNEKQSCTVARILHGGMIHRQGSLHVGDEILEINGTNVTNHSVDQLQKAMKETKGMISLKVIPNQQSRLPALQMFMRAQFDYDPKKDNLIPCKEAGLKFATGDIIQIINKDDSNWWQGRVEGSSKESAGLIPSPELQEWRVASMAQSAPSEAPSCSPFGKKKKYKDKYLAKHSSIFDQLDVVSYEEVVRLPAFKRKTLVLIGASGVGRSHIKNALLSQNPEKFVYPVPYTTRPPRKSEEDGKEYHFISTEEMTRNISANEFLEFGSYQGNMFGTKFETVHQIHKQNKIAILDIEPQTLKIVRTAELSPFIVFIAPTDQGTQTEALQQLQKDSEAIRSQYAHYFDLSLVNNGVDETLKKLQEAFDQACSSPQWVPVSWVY
Method: C-terminal peptides of ABCC4 containing the carboxyl-terminal 15 amino acids ([…]-COOH, ABCC4-PDZ) or carboxyl-terminal 11 amino acids lacking the PDZ-binding motif ([…]-COOH, ABCC4ΔC) conjugated to the cell penetrating peptide TAT ([…]) were chemically synthesized by the Hartwell Center for Bionformatics and Biotechnology at SJCRH. ABCC4 peptides (1–4 μM) were mixed with purified GST-ABCC4-C100 (50 nM) (Supplementary Fig. 10 ) before addition of His-S-MPP1 (3.6 nM) and allowed to mix for 2 h at 24 °C. The GST-ABCC4-C100 was immobilized on glutathione beads, and washed 3 times. Protein complexes were eluted from the beads, separated by SDS-PAGE, and immunoblotted with rabbit anti-MPP1.

[7] = system: primary AML cells from adult patients; assay: Annexin V/PI apoptosis in primary AML patient samples; type: cell-based, Human
Method: Primary AML cells from adult patients were treated with either vehicle, 50 or 100 µM cytarabine, 10 nM Antimycin A, or the combination of 50 or 100 µM cytarabine + 10 nM Antimycin A for 4 h. Post treatment, the cells were washed with fresh media (2×) and resuspended in the absence or presence of 10 nM Antimycin A and cultured for an additional 44 h (for a total treatment time of 48 h). The cells were then stained with Annexin V-fluorescein isothiocyanate (FITC)/propidium iodide (PI) apoptosis Kit (Beckman Coulter; Brea, CA, USA). The stage of apoptotic cells (Annexin V-positive, but early or late apoptosis) is identified by the proportion of AnnexinV+/PI− (early apoptosis) and Annexin V+/PI+ (late apoptosis) cells. This experiment was performed once in triplicates (presented as average ± SEM) due to the limited sample availability. Patient samples were selected based on the availability of an adequate number of cells to perform the assay.

MO7e cells [8] = assay: Etoposide cytotoxicity in MO7e cells and CRISPR knock-outs; type: cell-based, Human; details: for IC50: Homo sapiens, Mo7e, triplicate
HEK293 cells [9] = assay: Etoposide cytotoxicity in transfected HEK293 cells; type: cell-based, Human; details: for IC50: Homo sapiens, triplicate
ABCC4 (MO7e lysates) = assay: Immunoprecipitation of ABCC4 from MO7e lysates by purified MPP1 fragments; type: binding, Human; details: purified fragment with MO7e lysates, n = 3, in words
Source text: For full-length expression of MPP1, the pTriX vector containing an N-terminal His tag was used to create the His-S-MPP1 fusion protein. Proteins were expressed in E. coli and purified using a nickel column (Supplementary Fig. 9). The production of cDNA constructs containing various defined segments of MPP1 has been described previously. The cDNA fragments containing either the N-terminal domain of MPP1 (amino acids 1–83), the PDZ domain (amino acids 83–160) or the C-terminal domain, containing both the SH3 and GUK domains (amino acids 161–466), were PCR amplified and subcloned into the pGex vector. All clones were fully sequenced to confirm their identity and reading frame. The GST-fusion proteins were purified using a glutathione column.

Sc1ncnc2nc[nH]c12 [6MP, 6-mercaptopurine]
effect of MPP1 on survival of cells expressing ABCC4 lacking the PDZ motif (HEK293 cells [1]; HEK293, ABCC4ΔC, in words): no additional survival benefit | increase of 6MP IC50 by ABCC4 expression (HEK293 cells [1]; HEK293 ABCC4 vs. empty vector (Ctrl)): 2.6 fold | IC50 (HEK293 cells [1]; end of the shift with increasing MPP1 (P < 0.05), 96 h): 608 µM | IC50 (HEK293 cells [1]; start of the shift with increasing MPP1, 96 h): 184 µM | IC50 (MO7e cells [2]; MO7e + Antimycin A (10 nM), Fig. 6a): 13.6 µM | IC50 (MO7e cells [2]; MO7e ABCC4 KO + Antimycin A (10 nM), Fig. 6a): 22.2 µM | IC50 (MO7e cells [2]; MO7e ABCC4 KO, Fig. 4f): 27.6 µM | IC50 (MO7e cells [2]; MO7e DKO (ABCC4 and MPP1), Fig. 4f): 10.9 µM | IC50 (MO7e cells [2]; MO7e MPP1 KO, Fig. 4f): 27.7 µM | IC50 (MO7e cells [2]; MO7e parental, Fig. 4f): 135 µM | IC50 (MO7e cells [2]; without Antimycin A, Fig. 6a): 135 µM | decrease of 6MP resistance vs. parental cells (MO7e cells [2]; MPP1 deletion alone): over fourfold | decrease of 6MP resistance vs. parental cells (MO7e cells [2]; deletion of ABCC4): over fourfold

SNGQPSTLTIF-COOH (YGRKKRRQRRRSNGQPSTLTIF-OH) [ABCC4ΔC]
effect of peptide on 6MP sensitivity (MO7e cells [3]): had no effect | effect of peptide on 6MP IC50 (HEK293 cells [1]; HEK293 co-expressing ABCC4 and MPP1, cell penetrating peptide (20 μM in methods; various amounts), 96 h, in words): without effect; also recorded: no effect on 6MP IC50 values | effect on MPP1-driven methylcellulose replating [4]: incapable of suppressing MPP1-stimulated replating | ABCC4 remaining at the membrane ([5]; cell penetrating peptide (TAT fused; 10 μM in Supplementary Fig. 4), n = 20 fields of view): > 80% | effect on ABCC4 plasma membrane localization ([5]; in words, confocal microscopy): ineffective in relocalizing ABCC4 | disruption of the MPP1 and ABCC4 protein interaction [6]: incapable of disrupting the MPP1 and ABCC4 protein interaction

Nc1ccn([C@@H]2O[C@H](CO)[C@@H](O)[C@@H]2O)c(=O)n1 [cytarabine, cytosine arabinoside]
cytarabine response of primary AML cells ([7]; one primary AML patient sample, in culture and in vivo (peer review file)): non-responsive | cytarabine response of primary AML cells ([7]; the other patient sample (peer review file)): sensitive

COc1cc([C@@H]2c3cc4c(cc3[C@@H](O[C@@H]3O[C@@H]5CO[C@@H](C)O[C@H]5[C@H](O)[C@H]3O)[C@H]3COC(=O)[C@H]23)OCO4)cc(OC)c1O [Etoposide, etoposide]
IC50 (MO7e cells [8]; MO7e ABCC4 KO): 23.9 µM | IC50 (MO7e cells [8]; MO7e DKO): 21.5 µM | IC50 (MO7e cells [8]; MO7e MPP1 KO): 20 µM | IC50 (MO7e cells [8]; MO7e parental): 27.2 µM | etoposide sensitivity of knock-out strains (MO7e cells [8]; MO7e ABCC4 KO, MPP1 KO, DKO, in words): did not affect etoposide sensitivity; also recorded: equally sensitive to etoposide | effect of ABCC4 and/or MPP1 on etoposide sensitivity (HEK293 cells [9]; HEK293, in words): not affected by MPP1; also recorded: not affected by the presence of either ABCC4 and/or MPP1 | IC50 (HEK293 cells [9]; HEK293, HEK293 ABCC4 + MPP1): 1200 nM | IC50 (HEK293 cells [9]; HEK293, HEK293 ABCC4): 1300 nM | IC50 (HEK293 cells [9]; HEK293, HEK293 ABCC4ΔC + MPP1): 1200 nM | IC50 (HEK293 cells [9]; HEK293, HEK293 ABCC4ΔC): 1500 nM | IC50 (HEK293 cells [9]; HEK293, HEK293 Ctrl (empty vector)): 1400 nM

B1: SH3 and GUK domain: SH3 and GUK domain of MPP1 (amino acids 162–466) (protein, UniProt Q00013 162-466, looked up, fragment)
chain: FMRAQFDYDPKKDNLIPCKEAGLKFATGDIIQIINKDDSNWWQGRVEGSSKESAGLIPSPELQEWRVASMAQSAPSEAPSCSPFGKKKKYKDKYLAKHSSIFDQLDVVSYEEVVRLPAFKRKTLVLIGASGVGRSHIKNALLSQNPEKFVYPVPYTTRPPRKSEEDGKEYHFISTEEMTRNISANEFLEFGSYQGNMFGTKFETVHQIHKQNKIAILDIEPQTLKIVRTAELSPFIVFIAPTDQGTQTEALQQLQKDSEAIRSQYAHYFDLSLVNNGVDETLKKLQEAFDQACSSPQWVPVSWVY
immunoprecipitation of ABCC4 (ABCC4 (MO7e lysates)): incapable of immunoprecipitating ABCC4

B2: MPP1 N terminus: MPP1 N terminus, up to the PDZ domain (amino acids 1–83) (protein, UniProt Q00013 1-83, looked up, fragment)
chain: MTLKASEGESGGSMHTALSDLYLEHLLQKRSRPEAVSHPLNTVTEDMYTNGSPAPGSPAQVKGQEVRKVRLIQFEKVTEEPMG
immunoprecipitation of ABCC4 (ABCC4 (MO7e lysates)): incapable of immunoprecipitating ABCC4
